According to paper PMC10819729 (Pharmaceutics, 2023):
Counter-ions that a name gives are not always drawn. Like-named read-outs stand apart in the source and are kept apart here.

What was measured:
[1] = human; cited from earlier work
[2] = human, in vivo, cited from earlier work
[3] = cited from earlier work
in vivo = assay: in vivo; set-up: species or system mice; conditions: male, C57BL/6J, mouse, 30 mg/kg; for half-life: T1/2 (plasma)
Protocol: Adult male C57BL/6J mice (8–9 weeks, 23–27 g) were purchased from the Jackson Laboratory, Bar Harbor, ME, USA. Mice were housed in ventilated cages with controlled temperature and humidity, and a 12 h light/dark cycle. Food and water were available ad libitum, and animals were habituated to the experimental room for three days before the start of the study. All procedures were conducted according to a protocol approved by the Texas Tech University Health Sciences Center Institutional Animal Care and Use Committee (protocol 21039, approved on 26 July 2023). […] Plasma and brain samples were collected 5, 20, 60, 120, and 180 min after the drug administration. […] Mice were deeply anesthetized with isoflurane and decapitated, followed by blood collection in a microtube containing heparin. Plasma was obtained by centrifugation of the microtube for 10 min at 5000× g at 4 °C. The brains were quickly removed and delicately cleansed on filter paper with sterile saline, the surface vasculature was removed using gauze tipped in saline, and the forebrains were quickly frozen using dry ice. Plasma and brain samples were stored at −80 °C until bioanalysis. The brain samples were homogenized at 1:10 (w/v) in LC-MS-grade water using BioSpec Tissue-Tearor Homogenizer. The plasma sample was diluted 10-fold (v/v) in LC-MS-grade water. The plasma samples and brain homogenates were subjected to protein precipitation using ice-cold acetonitrile (1:4 ratio) containing 0.1% formic acid along with the IS (10 ng/mL). The samples underwent continuous vortexing for 5 min, followed by centrifugation at 12,800× g at 4 °C. The resulting clear supernatant was used for injection into the mass spectrometer. LC-MS/MS analysis was conducted using a QTRAP 5500 mass spectrometer (SCIEX, Foster City, CA, USA) connected with a SHIMADZU Prominence LC system (Kyoto, Japan), consisting of an LC-30AD solvent delivery unit, a DGU-20A3R degassing unit, a CTO-30A column oven, and a SIL-30AC autosampler. Chromatographic separation was achieved on an EVO-C18 100Å column (1.7 µm i.d., 50 × 2.1 mm). The mobile phase comprised 0.1% formic acid in water (A) and 0.1% formic acid in acetonitrile (B) at a flow rate of 0.3 mL/min. […] The autosampler and column temperatures were 4 °C and 40 °C, respectively. The injection volume was 2 μL. The mass spectrometric detection of the analytes was executed using multiple reaction monitoring (MRM) with an electrospray ionization (ESI) source in positive ion mode. The conditions were curtain gas, 35 psi; ion spray voltage, 5500 V; temperature, 500 °C; ion source gas 1, 50 psi; and ion source gas 2, 55 psi. […] For milnacipran-d10, which served as the IS, the MH^+ was monitored at m/z 257.2, whereas a fragment at m/z 110.2 was monitored as the product ion. […] Data acquisition and processing were carried out using Sciex Analyst (version 1.7) and MultiQuant software (version 3.0), respectively. The pharmacokinetic parameters were assessed using standard non-compartmental analysis. Microsoft Excel and GraphPad Prism 8.4.3 software were used for calculations and graphical presentation. The apparent first-order terminal rate constant (Kel) with 95% confidence interval (95% CI) was obtained in Prism by linear regression of log-transformed plasma concentration versus time data. The linear trapezoidal model was used for both IV and IP administration to determine area under the curve from time 0 to 3 h (AUC0-3). AUC0-∞ (area under the curve from time 0 to infinity) was obtained by extrapolation to infinity, using the mean concentration at the terminal time point and Kel. The standard errors (SE) of AUC0-3 and AUC0-∞ were calculated applying Bailer’s method for sparse data. Cmax and Tmax values after IP administration are based on actual measurements for the noted sampling time-points. The terminal T1/2 with CI was calculated as 0.693/Kel. […] For the IV route, Vd was calculated using the formula Dose/C0, and clearance (Cl) was determined as Vd*Kel. […]

CCN(CC)C(=O)C1(c2ccccc2)CC1CN (racemic) [milnacipran, (±)-[1R(S), 2S(R)]-2-(aminomethyl)-N, N-diethyl-1-phenylcyclopropanecarboxamide hydrochloride]
Plasma protein binding [1]: around 13%
bioavailability ([2]; po): ~ 90%
time to peak plasma concentrations ([2]; po): 2 to 4 h
terminal elimination half-life [2]: 360 to 600 min
volume of distribution [2]: 5.3 L/kg
half-life ([3]; rat, in vivo, iv, 4.5 mg/kg): 402 min
half-life ([3]; rats, intranasal, 20 mg/kg): 67.9 min
bioavailability (in vivo): 92.5%
AUC(0-inf) (in vivo; ip): 11000 ng·h/mL
AUC(0-t) (in vivo; ip): 10300 ng·h/mL
Cmax (in vivo; ip): 8530 ± 690 ng/mL
Kterm (plasma) (in vivo; ip): 0.016 (0.013 to 0.019) min^−1
MRT (in vivo; ip): 58.3 min
Tmax (in vivo; ip): 5 min
Vd (in vivo; ip): 3.37 L/kg
clearance (in vivo; ip): 39.5 mL/min/kg
half-life (in vivo; ip): 42.5 min
Tmax (in vivo; ip, Tmax (brain)): ~60 min
AUC(0-inf) (in vivo; iv): 11800 ng·h/mL
AUC(0-t) (in vivo; iv): 10400 ng·h/mL
Kterm (plasma) (in vivo; iv): 0.012 (0.011 to 0.013) min^−1
MRT (in vivo; iv): 57 min
T1/2 (plasma) (in vivo; iv): 59.2 (54.4 to 64.1) min
Vd (in vivo; iv): 3.65 L/kg
clearance (in vivo; iv): 42.7 mL/min/kg
half-life (in vivo; iv): 59 min
Tmax (in vivo; iv, Tmax (brain)): ~60 min
